Laboratory results reported in publication PMC9262584 (2022).

Key:
[1] = system: Cd1^146 (RNA, riboswitch) GGAAACUAAAUAGGCAAAUCUAGAGAAAUCUAGUGACGCAAAGCUAUAGGGACUAAGGUUUAUAUACAUAAACUAUGUCAGCCAGUUGCCAAAAAGAGUCCUAGGUGUAUUGUAUACCUAAGAAAAGUCUAUAAUGACUGCCUUUUUG; assay: ITC; settings: 120 mM NaCl, 8 mM MgCl2 (RNA wash buffer); 50 mM Bis-Tris pH 6.1; individual ITC conditions in SI Figures S11/S12
[2] = system: Cd1^148 (RNA, riboswitch) GGAAACUAAAUAGGCAAAUCUAGAGAAAUCUAGUGACGCAAAGCUAUAGGGACUAAGGUUUAUAUACAUAAACUAUGUCAGCCAGUUGCCAAAAAGAGUCCUAGGUGUAUUGUAUACCUAAGAAAAGUCUAUAAUGACUGCCUUUUUGGC; assay: 2D 1H/15N correlation NMR; settings: 110 mM NaCl, MgCl2 at 40 equiv. over RNA; 50 mM Bis-Tris, 5-10% D2O
[3] = system: Cd1^147 (RNA, riboswitch) GGAAACUAAAUAGGCAAAUCUAGAGAAAUCUAGUGACGCAAAGCUAUAGGGACUAAGGUUUAUAUACAUAAACUAUGUCAGCCAGUUGCCAAAAAGAGUCCUAGGUGUAUUGUAUACCUAAGAAAAGUCUAUAAUGACUGCCUUUUUGG; assay: 2D 1H/15N correlation NMR; settings: 110 mM NaCl, MgCl2 at 40 equiv. over RNA; 50 mM Bis-Tris, 5-10% D2O
[4] = system: Cd1^88 G11A (RNA, riboswitch) GGAAACUAAAUAAGCAAAUCUAGAGAAAUCUAGUGACGCAAAGCUAUAGGGACUAAGGUUUAUAUACAUAAACUAUGUCAGCCAGUUGCC; assay: 1H NMR reporter peaks; settings: 110 mM NaCl, MgCl2 at 40 equiv. over RNA; 50 mM Bis-Tris, 5-10% D2O
[5] = system: Cd1^82 (RNA, riboswitch) GGAAACUAAAUAGGCAAAUCUAGAGAAAUCUAGUGACGCAAAGCUAUAGGGACUAAGGUUUAUAUACAUAAACUAUGUCAGCCA; assay: 1H NMR reporter peaks; settings: 110 mM NaCl, MgCl2 at 40 equiv. over RNA; 50 mM Bis-Tris, 5-10% D2O
[6] = system: Cd1^88 A24-26U (RNA, riboswitch) GGAAACUAAAUAGGCAAAUCUAGAGUUUUCUAGUGACGCAAAGCUAUAGGGACUAAGGUUUAUAUACAUAAACUAUGUCAGCCAGUUGCC; assay: 1H NMR reporter peaks; settings: 110 mM NaCl, MgCl2 at 40 equiv. over RNA; 50 mM Bis-Tris, 5-10% D2O
[7] = system: Cd1^88 C81A (RNA, riboswitch) GGAAACUAAAUAGGCAAAUCUAGAGAAAUCUAGUGACGCAAAGCUAUAGGGACUAAGGUUUAUAUACAUAAACUAUGUCAGCAAGUUGCC; assay: 1H NMR reporter peaks; settings: 110 mM NaCl, MgCl2 at 40 equiv. over RNA; 50 mM Bis-Tris, 5-10% D2O
[8] = system: Cd1^135 (RNA, riboswitch) GGAAACUAAAUAGGCAAAUCUAGAGAAAUCUAGUGACGCAAAGCUAUAGGGACUAAGGUUUAUAUACAUAAACUAUGUCAGCCAGUUGCCAAAAAGAGUCCUAGGUGUAUUGUAUACCUAAGAAAAGUCUAUAAUGA; assay: ITC; settings: 120 mM NaCl, 8 mM MgCl2 (RNA wash buffer); 50 mM Bis-Tris pH 6.1; individual ITC conditions in SI Figures S11/S12
[9] = system: Cd1^88 C88A (RNA, riboswitch) GGAAACUAAAUAGGCAAAUCUAGAGAAAUCUAGUGACGCAAAGCUAUAGGGACUAAGGUUUAUAUACAUAAACUAUGUCAGCCAGUUGCA; assay: 1H NMR reporter peaks; settings: 110 mM NaCl, MgCl2 at 40 equiv. over RNA; 50 mM Bis-Tris, 5-10% D2O
[10] = system: Cd1^87 (RNA, riboswitch) GGAAACUAAAUAGGCAAAUCUAGAGAAAUCUAGUGACGCAAAGCUAUAGGGACUAAGGUUUAUAUACAUAAACUAUGUCAGCCAGUUGC; assay: ITC; settings: 120 mM NaCl, 8 mM MgCl2 (RNA wash buffer); 50 mM Bis-Tris pH 6.1; individual ITC conditions in SI Figures S11/S12
[11] = system: Cd1^149 (RNA, riboswitch) GGAAACUAAAUAGGCAAAUCUAGAGAAAUCUAGUGACGCAAAGCUAUAGGGACUAAGGUUUAUAUACAUAAACUAUGUCAGCCAGUUGCCAAAAAGAGUCCUAGGUGUAUUGUAUACCUAAGAAAAGUCUAUAAUGACUGCCUUUUUGGCA; assay: 2D 1H/15N correlation NMR; settings: 110 mM NaCl, MgCl2 at 40 equiv. over RNA; 50 mM Bis-Tris, 5-10% D2O
[12] = system: Cd1^88 C87A (RNA, riboswitch) GGAAACUAAAUAGGCAAAUCUAGAGAAAUCUAGUGACGCAAAGCUAUAGGGACUAAGGUUUAUAUACAUAAACUAUGUCAGCCAGUUGAC; assay: 1H NMR reporter peaks; settings: 110 mM NaCl, MgCl2 at 40 equiv. over RNA; 50 mM Bis-Tris, 5-10% D2O
[13] = system: Cd1^83 (RNA, riboswitch) GGAAACUAAAUAGGCAAAUCUAGAGAAAUCUAGUGACGCAAAGCUAUAGGGACUAAGGUUUAUAUACAUAAACUAUGUCAGCCAG; assay: ITC; settings: 120 mM NaCl, 8 mM MgCl2 (RNA wash buffer); 50 mM Bis-Tris pH 6.1; individual ITC conditions in SI Figures S11/S12
[14] = system: Cd1^81 (RNA, riboswitch) GGAAACUAAAUAGGCAAAUCUAGAGAAAUCUAGUGACGCAAAGCUAUAGGGACUAAGGUUUAUAUACAUAAACUAUGUCAGCC; assay: 1H NMR reporter peaks; settings: 110 mM NaCl, MgCl2 at 40 equiv. over RNA; 50 mM Bis-Tris, 5-10% D2O
[15] = system: Cd1^86 (RNA, riboswitch) GGAAACUAAAUAGGCAAAUCUAGAGAAAUCUAGUGACGCAAAGCUAUAGGGACUAAGGUUUAUAUACAUAAACUAUGUCAGCCAGUUG; assay: ITC; settings: 120 mM NaCl, 8 mM MgCl2 (RNA wash buffer); 50 mM Bis-Tris pH 6.1; individual ITC conditions in SI Figures S11/S12
[16] = system: Cd1^88 G11C (RNA, riboswitch) GGAAACUAAAUACGCAAAUCUAGAGAAAUCUAGUGACGCAAAGCUAUAGGGACUAAGGUUUAUAUACAUAAACUAUGUCAGCCAGUUGCC; assay: 1H NMR reporter peaks; settings: 110 mM NaCl, MgCl2 at 40 equiv. over RNA; 50 mM Bis-Tris, 5-10% D2O
[17] = system: Cd1^88 (RNA, riboswitch) GGAAACUAAAUAGGCAAAUCUAGAGAAAUCUAGUGACGCAAAGCUAUAGGGACUAAGGUUUAUAUACAUAAACUAUGUCAGCCAGUUGCC; assay: ITC; settings: 120 mM NaCl, 8 mM MgCl2 (RNA wash buffer); 50 mM Bis-Tris pH 6.1; individual ITC conditions in SI Figures S11/S12
[18] = system: Cd1^80 (RNA, riboswitch) GGAAACUAAAUAGGCAAAUCUAGAGAAAUCUAGUGACGCAAAGCUAUAGGGACUAAGGUUUAUAUACAUAAACUAUGUCAGC; assay: 1H NMR reporter peaks; settings: 110 mM NaCl, MgCl2 at 40 equiv. over RNA; 50 mM Bis-Tris, 5-10% D2O

KD [1]: 7000 ± 2000 nM
binding [2]: no
binding [3]: yes
binding [4]: yes
binding [5]: no
binding [6]: no
binding [7]: no
KD [8]: 600 ± 30 nM
binding [9]: yes
KD [10]: 1900 ± 100 nM
binding [11]: no
binding [12]: weak
KD [13]: > >100 μM
binding [14]: no
KD [15]: 35000 ± 10000 nM
binding [16]: yes
KD [17]: 250 ± 40 nM
binding [18]: no
Compound: Nc1nc2c(ncn2[C@@H]2O[C@@H]3COP(=O)(O)O[C@H]4[C@@H](O)[C@H](n5cnc6c(=O)[nH]c(N)nc65)O[C@@H]4COP(=O)(O)O[C@H]3[C@H]2O)c(=O)[nH]1
